Laboratory results: patent US10980824B2, “Pharmaceutical composition comprising quercetin-3-O-β-D-xylopyranoside for preventing or treating liver disease” (Hongcheon Institute of Medical Herb, priority 2016, dated 2021)

Experiments:
Assay type in all cases: in vivo, C57BL/6N mice
[1] = test system: p-AMPKα; test: Western blot of p-AMPKα in liver tissue
Protocol: (§1) Expression of p-AMPKα, p-ACC, and CPT-1, which regulate intrahepatic lipid metabolism, was analyzed by western blot analysis to understand the mechanism involved in pathogenesis of alcoholic steatosis in detail. The specific western blot analysis method is as follows.
(§2) First, a mouse liver homogenate was prepared by using a RIPA buffer solution including a protease and tyrosine phosphatase inhibitor cocktail (Sigma). Protein concentrations of lysates were determined using a Bicinchoninic (BCA) Protein Assay Kit (Thermo Scientific, IL, USA) according to the manufacturer's instructions. Isolated soluble proteins ([…]) were separated on an 8% to 15% SDS-polyacrylamide gel. The separated proteins were electroblotted on a nitrocellulose transfer membrane (Bio-Rad, Hercules, Calif., USA). The membrane was incubated with 5% non-fat dry milk for 1 hour and then probed for antigens using antibodies diluted to 1:1,000, and was incubated with anti-pAMPKα, anti-AMPKα, anti-PACC, anti-ACC, anti-CYP2E1, anti-CPT1a (Cell Signaling Technology), and anti-β-actin (Santa Cruz Biotechnology) at 4° C. for 18 hours. […] Band density was measured using ImageJ (National Institutes of Health, Bethesda, Md., USA) and expressed as a multiple relative to β-actin.

[2] = test system: Fas gene; test: Real-time PCR of lipid metabolism gene expression in liver: Fas; settings: liver mRNA, relative to Pair-fed group; EtOH+B group, 1 mg/kg oral 10 days (FIG. 11)
Protocol: (§3) 8-week-old C57BL/6N mice were purchased from DAEHAN BIOLINK to be used for efficacy evaluation and quarantined and acclimated in a vivarium of HONGCHEON INSTITUTE OF MEDICAL HERB for 7 days (relative temperature: 23±2° C., relative humidity: 50±5%, and a 12 h light-dark cycle) prior to the start of experimentation. Among them, 18 male mice with no abnormal symptoms were selected and used.
(§4) During a liquid diet adaptation period, a control group was restrictedly fed with a Lieber-DeCarli'82 control liquid diet (F1259SP, Bio-serv), and an alcohol-fed group was restrictedly fed with a Lieber-DeCarli'82 ethanol liquid diet (F1258SP, Bio-serv) using a Liquid diet feeding tube (9019, Bio-serv), and the diets were replaced with new ones at a preset time between 3 P.M. and 5 P.M. […]
(§5) Real-time quantitative PCR was performed using a 7500 Real-time Thermal Cycler (Applied Biosystems, USA) with SYBR Green (Applied Biosystems, USA) to measure gene expression. […]
(§6) PCR amplification steps as described below were repeated for up to 40 cycles. […] Values were recorded after extension at every cycle.
(§7) After completion of all cycles, melting curve analysis was carried out to verify specificity of the primers. The results were analyzed using the One step system software v2.1 provided by Applied Biosystems.

[3] = test system: IL-1β; test: mRNA level of IL-1β by RT-PCR; settings: alcohol+compound group vs alcohol-fed group (FIG. 14)
Description: (§8) Monocyte chemoattractant protein 1 (MCP-1), called chemokine ligand 2 (CCL2), is one of the key chemokines that regulate pathogeneses of several diseases caused by monocyte infiltration. Meanwhile, interleukin 1 beta (IL1β), also known as a leukocytic endogenous mediator and a lymphocyte activating factor, is a member of the interleukin 1 family of cytokines. The cytokines are produced by activated macrophages at a damaged region of tissue.
(§9) Specifically, mRNA levels of MCP-1 and IL-1β were analyzed by using RT-PCR as described above in Example 2-8.

[4] = test system: Cd36 gene; test: Real-time PCR of lipid metabolism gene expression in liver: Cd36; settings: liver mRNA, relative to Pair-fed group; EtOH+B group, 1 mg/kg oral 10 days (FIG. 11)
Protocol: as §3, §4, §5, §6, §7

[5] = test system: p-ACC; test: Western blot of p-ACC in liver tissue; settings: compound group vs alcohol-fed group
Protocol: as §1, §2

[6] = test system: ApoB gene; test: Real-time PCR of lipid metabolism gene expression in liver: ApoB; settings: liver mRNA, relative to Pair-fed group; EtOH+B group, 1 mg/kg oral 10 days (FIG. 11)
Protocol: as §3, §4, §5, §6, §7

[7] = test system: alcoholic steatosis-induced mice; test: Concentrations of triglycerides in the blood and liver; settings: 1 mg/kg oral 10 days; EtOH+B vs EtOH-fed (FIG. 7)
Protocol: as §3
(§10) During a liquid diet adaptation period, a control group was restrictedly fed with a Lieber-DeCarli'82 control liquid diet (F1259SP, Bio-serv), and an alcohol-fed group was restrictedly fed with a Lieber-DeCarli'82 ethanol liquid diet (F1258SP, Bio-serv) using a Liquid diet feeding tube (9019, Bio-serv), and the diets were replaced with new ones at a preset time between 3 P.M. and 5 P.M.
(§11) After 5 days of the liquid diet adaptation period, the mice were orally administered with 1 mg/kg of quercetin-3-O-β-D-xylopyranoside (test substance) for 10 days and fed with a 5% alcohol liquid diet. At 11th day, between 7 A.M. and 9 A.M., a group not fed with alcohol (hereinafter referred to as Pair-fed group) was orally administered with a 45% maltose dextrin solution, and a group fed with a 5% liquid diet (hereinafter referred to as EtOH-fed) and a group administered with a test substance (hereinafter referred to as EtOH+B group) were orally fed with 31.5% ethanol. […]

[8] = test system: alcoholic steatosis-induced mice; test: Progression of hepatic fibrosis in reticular fibers by Gomori Reticulum staining; settings: 1 mg/kg oral 10 days; EtOH+B vs EtOH-fed (FIG. 9)
Protocol: as §3, §10, §11

[9] = test system: adiponectin; test: Effect on recovering adiponectin in alcoholic steatosis mice; settings: alcohol+compound group vs alcohol-fed group (FIG. 13)
Protocol: Adiponectin, which is a major anti-inflammatory agent, is an adipose tissue-derived adipokine. […] Thus, a plasma level of adiponectin was analyzed by ELISA to evaluate the effect of quercetin-3-O-β-D-xylopyranoside on regulation of the adiponectin content.
Specifically, the plasma level of adiponectin was analyzed by using RT-PCR and ELISA in the same manner as the measurement of the TNF-α level in liver tissue as described above in Example 2-8.

[10] = test system: TNF-α; test: Inhibitory effect on TNF-α in alcoholic steatosis mice; settings: liver tissue, vs alcohol-fed group (FIG. 12A)
Protocol: The level of TNF-α in liver tissue was measured by using RT-PCR and ELISA as described above in Example 2-7 to analyze whether the amount of TNF-α induced by alcohol was reduced due to treatment of quercetin-3-O-β-D-xylopyranoside.
A commercially available ELISA kit purchased from R&D Systems (Minneapolis, Minn.) was used.

[11] = test system: cytochrome P-450 2E1 (CYP2E1); test: Expression of cytochrome P-450 2E1 by tissue staining; settings: liver tissue staining; 1 mg/kg oral 10 days; EtOH+B vs EtOH-fed (FIG. 8)
Protocol: as §3, §10, §11

[12] = Body weight, feed intake and excised organ weight of alcoholic steatosis-induced mice; settings: 1 mg/kg oral 10 days; conclusion from body and organ weights
Protocol: as §3, §10
After 5 days of the liquid diet adaptation period, the mice were orally administered with 1 mg/kg of quercetin-3-O-β-D-xylopyranoside (test substance) for 10 days and fed with a 5% alcohol liquid diet. At 11th day, between 7 A.M. and 9 A.M., a group not fed with alcohol (hereinafter referred to as Pair-fed group) was orally administered with a 45% maltose dextrin solution, and a group fed with a 5% liquid diet (hereinafter referred to as EtOH-fed) and a group administered with a test substance (hereinafter referred to as EtOH+B group) were orally fed with 31.5% ethanol.
2-1. […]

[13] = test system: MCP-1; test: mRNA level of MCP-1 by RT-PCR; settings: alcohol+compound group vs alcohol-fed group (FIG. 14)
Description: as §8, §9

[14] = test system: alcoholic steatosis-induced mice; test: Apoptosis in liver tissue by TUNEL assay; settings: alcohol+compound group vs group fed with only alcohol (FIG. 15)
Protocol: DNA fragmentation characteristics of apoptosis were examined using a terminal deoxynucleotidyl transferase (TdT)-FragEL kit (Oncogene Research Products, San Diego, Calif.).
First, a tissue sample fixed in 4% paraformaldehyde was embedded in paraffin and sliced into 5 μm sections. Replicated sections were rehydrated and permeabilized with proteinase K (20 μg/mL) at 25° C. for 20 minutes. Subsequently, the sections were covered with 3% H2O2 for 5 minutes to inactivate endogenous peroxidase. After the sample was incubated in a TdT buffer solution (200 mM sodium-cacodylate, 30 mM Tris, 0.3 mg/mL BSA, 0.75 mM CoCl2, pH 6.6) for 5 minutes, slides were covered with TdT and biotinylated dUTP and incubated in a humidified chamber at 37° C. for 1.5 hours. Negative controls were incubated with biotinylated dUTP in a TdT buffer solution without enzyme. Reactions were terminated by adding a stop buffer (0.5 M EDTA, pH 8.0) thereto at room temperature for 5 minutes. After blocking with 4% BSA, the slides were incubated with a streptavidin-horseradish peroxidase conjugate for 30 minutes. Subsequently, the sections were incubated in DAB at room temperature for 12 minutes and counterstained with methyl green. Apoptotic cells were identified by stained properties and morphological criteria (cell contraction, chromatin condensation and/or margination, and apoptotic bodies).

[15] = test system: Fabp gene; test: Real-time PCR of lipid metabolism gene expression in liver: Fabp; settings: liver mRNA, relative to Pair-fed group; EtOH+B group, 1 mg/kg oral 10 days (FIG. 11)
Protocol: as §3, §4, §5, §6, §7

[16] = test system: alcoholic steatosis-induced mice; test: Biochemical analysis of ALT and AST levels; settings: 1 mg/kg oral 10 days; EtOH+B vs EtOH-fed (FIG. 10)
Protocol: as §3, §10, §11

[17] = test system: alcoholic steatosis-induced mice; test: Fat accumulation in the liver (visual observation, H&E staining, Oil Red O staining); settings: 1 mg/kg oral 10 days
Protocol: as §3, §10, §11

[18] = test system: CPT-1; test: Western blot of CPT-1 in liver tissue; settings: compound group vs alcohol-fed group
Protocol: as §1, §2

SMILES: O=c1c(O[C@@H]2OC[C@@H](O)[C@H](O)[C@H]2O)c(-c2ccc(O)c(O)c2)oc2cc(O)cc(O)c12 [quercetin-3-O-β-D-xylopyranoside]
- expression level of pAMPK ([1]; 10 mg/kg (FIGS. 16A and 16B)): significantly increased
- expression levels of AMPK protein ([1]; among the groups (FIGS. 16A and 16B)): no difference
- expression level of the Fas gene [2]: 1.1 times
- mRNA level of IL-1β [3]: significantly reduced
- expression level of the Cd36 gene [4]: 0.98 times
- p-ACC level [5]: significantly restored
- expression level of the ApoB gene [6]: 0.8 times
- concentration of triglycerides in the blood [7]: significantly reduced
- concentration of triglycerides in the liver [7]: significantly reduced
- progression of hepatic fibrosis in reticular fibers [8]: suppressed
- plasma adiponectin level [9]: significantly recovered
- expression level of RNA of TNF-α ([10]; 1 mg/kg): significantly inhibited
- expression level of RNA of TNF-α ([10]; 10 mg/kg): significantly inhibited
- CYP2E1 expression level [11]: far lower
- toxicity to mice and internal organs [12]: no toxicity
- mRNA level of MCP-1 [13]: significantly reduced
- degree of apoptosis in liver tissue [14]: significantly reduced
- expression level of the Fabp gene [15]: 0.7 times
- ALT level [16]: decreased
- AST level [16]: decreased
- amount of lipid accumulated in the liver, dissection and visual observation ([17]; EtOH+B vs EtOH-fed (FIG. 5)): significantly reduced
- amount of lipid droplets in the liver tissue, H&E and Oil Red O staining ([17]; EtOH+B vs EtOH-fed (FIG. 6)): significantly reduced
- CPT-1 level [18]: significantly restored
